# From ChEMBL document CHEMBL1201862, “PubChem BioAssay data set” (2004)
# Active and inactive are the calls of the source.
# Experiments:
# Coagulation factor XII = biological target: T1, Coagulation factor XII (Homo sapiens, UniProt P00748); format: functional;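 note: activated factor XIIa alpha cleaving a fluorogenic AMC peptide substrate; inhibitor potency from loss of enzyme activity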
# T1 sequence (P00748 whole entry): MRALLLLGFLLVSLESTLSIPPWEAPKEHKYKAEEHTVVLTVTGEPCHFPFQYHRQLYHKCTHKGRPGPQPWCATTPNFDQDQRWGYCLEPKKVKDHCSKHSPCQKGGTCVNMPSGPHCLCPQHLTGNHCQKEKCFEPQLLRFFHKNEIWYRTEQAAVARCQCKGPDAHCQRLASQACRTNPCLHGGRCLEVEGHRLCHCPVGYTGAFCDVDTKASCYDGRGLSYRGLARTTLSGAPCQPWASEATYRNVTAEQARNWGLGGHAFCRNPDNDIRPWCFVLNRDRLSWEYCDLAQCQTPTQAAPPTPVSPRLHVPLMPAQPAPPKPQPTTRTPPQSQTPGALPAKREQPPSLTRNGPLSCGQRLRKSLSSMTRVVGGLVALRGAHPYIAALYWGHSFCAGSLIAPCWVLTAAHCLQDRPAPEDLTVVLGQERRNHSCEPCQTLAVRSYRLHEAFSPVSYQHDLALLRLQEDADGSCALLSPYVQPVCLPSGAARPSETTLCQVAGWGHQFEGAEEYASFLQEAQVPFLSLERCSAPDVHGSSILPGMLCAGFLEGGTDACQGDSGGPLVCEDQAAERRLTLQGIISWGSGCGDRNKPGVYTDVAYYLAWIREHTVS
# [1] = biological target: Neurotensin receptor type 1 (Homo sapiens, UniProt P30989); format: functional;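 note: Image-based confirmatory dose-response assay measuring agonist activity at NTR1; NTR1-expressing U2OS osteosarcoma cells imaged for beta-arrestin GFP spot formation; agonist potency where compounds increase beta-arrestin recruitment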
# Sequence of Neurotensin receptor type 1 (P30989 whole entry): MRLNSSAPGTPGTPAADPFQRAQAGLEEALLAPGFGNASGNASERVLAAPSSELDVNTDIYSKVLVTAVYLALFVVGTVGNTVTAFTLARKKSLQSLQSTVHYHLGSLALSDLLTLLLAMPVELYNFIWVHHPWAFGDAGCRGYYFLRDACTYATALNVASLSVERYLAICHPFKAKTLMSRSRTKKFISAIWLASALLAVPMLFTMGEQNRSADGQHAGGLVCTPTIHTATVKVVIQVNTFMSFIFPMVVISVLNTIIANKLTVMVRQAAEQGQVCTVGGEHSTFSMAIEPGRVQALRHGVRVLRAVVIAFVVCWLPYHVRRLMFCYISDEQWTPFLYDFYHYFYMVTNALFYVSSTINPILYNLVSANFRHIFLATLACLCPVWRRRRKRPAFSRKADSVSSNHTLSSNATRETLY
# cells = format: functional
# [2] = growth suppression of beta-catenin-knockout colon cells, dose response, cell-based, HCT116, human colon tumor (AID 1045); format: functional;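 note: HCT116 colon tumor cells with beta catenin knocked out; cells exposed to compound for 60 hours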
# [3] = THP-1 cell cytotoxicity, dose response, cytotoxicity control for non-replicating M. tuberculosis project (AID 489025); format: functional
# BJ [4] = test: cytotoxicity toward BJ-TERT-LT-ST fibroblasts, dose response, cell-based, RAS-independent, luminescence (AID 1935); format: functional; settings: Homo sapiens;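 note: BJ fibroblasts immortalized with TERT plus LT and ST oncogenes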
# [5] = inhibitors of SNCA 5'UTR-driven reporter translation, confirmation, H4 neuroglioma cells, luminescence (AID 1988); format: functional, cell-based
# [6] = biological target: T2, Heat shock factor protein 1 (Mus musculus, UniProt P38532); test: HSF1 potentiators in luciferase reporter cells, confirmation, cell-based, NIH3T3, luminescence, dose retest (AID 435004); format: functional;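 note: stress induced by proteasome inhibitor MG132 added 30 min after compound; luciferase reporter driven by HSF1 response element in NIH3T3 cells; actives raise luminescence as potentiators of the MG132 stress response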
# T2 sequence (P38532 whole entry): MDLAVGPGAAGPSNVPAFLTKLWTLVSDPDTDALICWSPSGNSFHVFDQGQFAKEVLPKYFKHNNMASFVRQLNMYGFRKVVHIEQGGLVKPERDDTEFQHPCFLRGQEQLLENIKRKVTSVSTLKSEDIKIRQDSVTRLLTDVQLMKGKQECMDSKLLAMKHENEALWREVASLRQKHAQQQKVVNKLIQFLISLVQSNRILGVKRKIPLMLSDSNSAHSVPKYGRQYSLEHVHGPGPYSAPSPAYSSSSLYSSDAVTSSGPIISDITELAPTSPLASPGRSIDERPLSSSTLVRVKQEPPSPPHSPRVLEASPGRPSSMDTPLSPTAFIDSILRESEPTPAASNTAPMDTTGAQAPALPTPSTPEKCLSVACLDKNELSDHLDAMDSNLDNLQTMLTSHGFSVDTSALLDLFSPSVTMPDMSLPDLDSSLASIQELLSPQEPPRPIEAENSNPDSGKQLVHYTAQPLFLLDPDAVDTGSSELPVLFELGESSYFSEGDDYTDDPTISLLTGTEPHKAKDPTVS
# BJ [7] = test: cells; format: functional, cell-based; settings: Homo sapiens
# BJ [8] = test: cytotoxicity toward BJ-TERT fibroblasts, dose response, cell-based, RAS-independent, luminescence (AID 1933); format: functional; settings: Homo sapiens
# [9] = HepG2 cell cytotoxicity, dose response, cytotoxicity control for Shn3 inhibitor project, CellTiter-Glo, cherry-picked (AID 624134); format: functional, cell-based
# [10] = inhibitors of firefly luciferase expression or activity, dose response, H4 neuroglioma cells, luminescence (AID 1990); format: functional, cell-based
# INS1 = test: beta cell apoptosis inhibitors, cytokine rescue, dose response, luminescence, retest (AID 449756); format: functional, cell-based; settings: Rattus norvegicus;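 note: cell death triggered by IL-1 beta plus TNF-alpha plus IFN-gamma mixture; protective hits raise ATP signal compared with cytokine alone wells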
# Cytochrome P450 3A4 = Cytochrome P450 3A4 (Homo sapiens, UniProt P08684);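 note: CYP3A4 tested as one member of a cytochrome P450 panel screen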
# Sequence of Cytochrome P450 3A4 (P08684 whole entry): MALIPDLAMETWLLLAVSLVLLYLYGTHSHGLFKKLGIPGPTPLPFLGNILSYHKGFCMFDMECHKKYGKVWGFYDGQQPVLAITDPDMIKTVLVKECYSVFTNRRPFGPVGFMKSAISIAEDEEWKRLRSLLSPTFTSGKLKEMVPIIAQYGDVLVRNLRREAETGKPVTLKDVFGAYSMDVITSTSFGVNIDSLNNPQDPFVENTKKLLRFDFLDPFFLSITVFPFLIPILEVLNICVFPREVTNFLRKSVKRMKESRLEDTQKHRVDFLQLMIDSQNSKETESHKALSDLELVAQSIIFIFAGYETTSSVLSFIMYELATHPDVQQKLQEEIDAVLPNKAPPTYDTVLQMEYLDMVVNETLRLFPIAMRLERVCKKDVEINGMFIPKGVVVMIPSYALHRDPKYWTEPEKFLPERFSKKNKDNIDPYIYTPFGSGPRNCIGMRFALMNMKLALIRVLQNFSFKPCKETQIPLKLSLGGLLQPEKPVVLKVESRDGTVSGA
# [11] = Shn3 3'UTR reporter inhibitors, dose response, cell-based, Clone20 osteoblasts, firefly luciferase, cherry-picked (AID 624132); format: functional;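 note: firefly luciferase luminescence from reporter carrying the Shn3 3'UTR in osteoblasts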
# [12] = Luminescence Cell-Based Dose Response HTS to Identify Inhibitors of 5'UTR Stem-Loop Driven Prion Protein mRNA Translation in H4 Neuroglioblastoma Cells. [Related pubchem assays: 1827 (Project Summary), 1813 (Primary HTS)]; format: functional
# Cytochrome P450 2D6 = Cytochrome P450 2D6 (Homo sapiens, UniProt P10635);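 note: CYP2D6 member of a cytochrome P450 panel assay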
# Sequence of Cytochrome P450 2D6 (P10635 whole entry): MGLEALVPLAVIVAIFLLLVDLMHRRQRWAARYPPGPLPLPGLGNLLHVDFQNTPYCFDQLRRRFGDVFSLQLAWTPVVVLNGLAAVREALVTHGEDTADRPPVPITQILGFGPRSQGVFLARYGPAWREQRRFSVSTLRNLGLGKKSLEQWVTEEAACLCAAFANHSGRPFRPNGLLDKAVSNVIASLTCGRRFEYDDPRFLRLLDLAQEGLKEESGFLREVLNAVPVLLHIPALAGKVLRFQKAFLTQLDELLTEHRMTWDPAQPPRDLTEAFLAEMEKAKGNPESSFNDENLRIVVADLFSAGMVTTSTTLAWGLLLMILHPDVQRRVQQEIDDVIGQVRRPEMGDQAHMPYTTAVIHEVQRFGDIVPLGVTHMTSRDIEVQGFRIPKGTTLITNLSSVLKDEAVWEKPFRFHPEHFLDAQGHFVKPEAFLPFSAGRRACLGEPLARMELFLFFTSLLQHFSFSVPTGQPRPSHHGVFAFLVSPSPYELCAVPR
# [13] = biological target: Heat shock protein HSP 90-alpha (Homo sapiens, UniProt P07900); format: functional, organism-based
# [14] = control 3'UTR Renilla luciferase suppression, dose response, counter-screen for Shn3 inhibitor project, cell-based, Clone20-Shn3RL, cherry-picked (AID 624133); format: functional
# BJ [15] = test: cytotoxicity toward Ras-transformed BJeLR fibroblasts, dose response, cell-based, alamar blue fluorescence, cherrypicked samples (AID 2631); format: functional; settings: Homo sapiens;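 note: confirmatory dose-response assay in RAS-dependent BJ fibroblasts engineered with TERT, LT and ST, with cytotoxicity read by fluorescence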
# [16] = HepG2 cell cytotoxicity, dose response, cytotoxicity control for non-replicating M. tuberculosis project (AID 489018); format: functional; settings: Mycobacterium tuberculosis
# [17] = cytotoxicity toward DRD oncogenic fibroblasts, dose response, cell-based, non-viral oncogenic, luminescence (AID 1934); format: functional; settings: Homo sapiens
# [18] = growth suppression of PTEN-null colon cells, dose response, cell-based, HCT116 PTEN knockout (AID 1047); format: functional;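 note: HCT116 colon tumor cells with PTEN knocked out; cells exposed to compound for 60 hours before readout; potency for loss of cell viability measured by luminescence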
# [19] = Vero E6 cell cytotoxicity, dose response, cytotoxicity control for non-replicating M. tuberculosis project, secondary assay (AID 492998); format: functional, VeroE6; settings: Vero C1008
# Large T antigen = Large T antigen (Simian virus 40, UniProt P03070); format: functional, Betapolyomavirus macacae;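 note: Confirmatory-stage PubChem screen for compounds that inhibit SV40 T antigen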
# Sequence of Large T antigen (P03070 whole entry): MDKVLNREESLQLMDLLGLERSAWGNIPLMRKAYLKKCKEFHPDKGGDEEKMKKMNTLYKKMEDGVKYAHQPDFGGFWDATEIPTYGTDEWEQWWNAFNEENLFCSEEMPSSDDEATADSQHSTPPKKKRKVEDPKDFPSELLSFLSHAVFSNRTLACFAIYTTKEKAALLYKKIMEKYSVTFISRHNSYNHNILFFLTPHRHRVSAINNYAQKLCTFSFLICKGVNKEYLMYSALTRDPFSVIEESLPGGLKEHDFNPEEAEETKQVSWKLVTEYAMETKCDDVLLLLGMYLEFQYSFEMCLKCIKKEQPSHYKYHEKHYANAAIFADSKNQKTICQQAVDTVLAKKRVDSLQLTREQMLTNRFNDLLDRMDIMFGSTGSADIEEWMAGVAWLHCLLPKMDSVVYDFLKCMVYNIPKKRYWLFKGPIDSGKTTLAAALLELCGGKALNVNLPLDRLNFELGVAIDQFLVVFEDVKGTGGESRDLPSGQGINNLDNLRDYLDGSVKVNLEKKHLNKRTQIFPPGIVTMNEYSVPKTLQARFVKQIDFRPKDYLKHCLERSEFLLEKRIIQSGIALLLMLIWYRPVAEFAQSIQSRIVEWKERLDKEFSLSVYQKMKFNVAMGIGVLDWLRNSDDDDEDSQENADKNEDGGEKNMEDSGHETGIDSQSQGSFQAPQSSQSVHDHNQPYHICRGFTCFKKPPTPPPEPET
# H4 = test: Luminescence Cell-Based Dose Response HTS to Identify Activators of 5'UTR Stem-Loop Driven Prion Protein mRNA Translation in H4 Neuroglioblastoma Cells. [Related pubchem assays: 1829 (Project Summary), 1814 (Primary HTS)]; format: functional; settings: Homo sapiens
# [20] = Luminescence Cell-Based Dose Confirmation HTS to Identify Activators of 5'UTR Stem-Loop Driven Alpha-Synuclein mRNA Translation in H4 Neuroglioblastoma Cells. [Related pubchem assays: 1829 (Project Summary), 1814 (Primary HTS)]; format: functional
# Paired box protein Pax-8 = Paired box protein Pax-8 (Homo sapiens, UniProt Q06710); test: inhibitors of PAX8-driven TPO luciferase reporter, dose response, RMG-I cells, cherry-pick (AID 687027); format: functional, cell-based;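 note: luciferase reporter driven by Pax8 target thyroperoxidase promoter measured by SteadyGlo luminescence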
# Sequence of Paired box protein Pax-8 (Q06710 whole entry): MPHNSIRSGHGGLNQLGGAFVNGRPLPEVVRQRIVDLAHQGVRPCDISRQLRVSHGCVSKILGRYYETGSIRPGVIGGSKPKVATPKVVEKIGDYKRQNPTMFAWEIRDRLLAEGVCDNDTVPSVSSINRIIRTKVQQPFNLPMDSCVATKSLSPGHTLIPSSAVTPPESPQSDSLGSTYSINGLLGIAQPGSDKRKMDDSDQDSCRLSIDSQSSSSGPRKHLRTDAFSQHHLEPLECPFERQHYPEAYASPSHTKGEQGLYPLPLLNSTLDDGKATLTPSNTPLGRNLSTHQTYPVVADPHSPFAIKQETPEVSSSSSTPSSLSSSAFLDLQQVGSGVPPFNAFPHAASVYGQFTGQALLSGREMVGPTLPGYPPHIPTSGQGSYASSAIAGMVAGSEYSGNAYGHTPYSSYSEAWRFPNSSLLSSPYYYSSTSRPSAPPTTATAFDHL
# [21] = Luminescence Cell-Based Dose Response HTS to Identify Activators of Luciferase Translation or Activity in H4 […] Cells. [Related pubchem assays: 1829 (Project Summary), 1814 (Primary HTS)]; format: functional
# [22] = cytotoxicity in HPDE-C7 cells, cell-based, fluorescence, HTS (AID 430); format: functional; settings: Homo sapiens
# [23] = microbe, parasite or virus in culture; format: functional; settings: Mycobacterium tuberculosis
# [24] = cytotoxicity in KRAS-transformed pancreatic duct cells, primary screen, cell-based, fluorescence, HTS (AID 431); format: functional; settings: Homo sapiens;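 note: cell line used: HPDE-C7K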
# [25] = biological target: T3, Microphthalmia-associated transcription factor (Homo sapiens, UniProt O75030); test: TRPM1 promoter luciferase signal decrease, dose response, MITF inhibitor project, cell-based, SK-MEL-5, cherry-picked, set 3 (AID 493073); format: functional
# T3 sequence (O75030 whole entry): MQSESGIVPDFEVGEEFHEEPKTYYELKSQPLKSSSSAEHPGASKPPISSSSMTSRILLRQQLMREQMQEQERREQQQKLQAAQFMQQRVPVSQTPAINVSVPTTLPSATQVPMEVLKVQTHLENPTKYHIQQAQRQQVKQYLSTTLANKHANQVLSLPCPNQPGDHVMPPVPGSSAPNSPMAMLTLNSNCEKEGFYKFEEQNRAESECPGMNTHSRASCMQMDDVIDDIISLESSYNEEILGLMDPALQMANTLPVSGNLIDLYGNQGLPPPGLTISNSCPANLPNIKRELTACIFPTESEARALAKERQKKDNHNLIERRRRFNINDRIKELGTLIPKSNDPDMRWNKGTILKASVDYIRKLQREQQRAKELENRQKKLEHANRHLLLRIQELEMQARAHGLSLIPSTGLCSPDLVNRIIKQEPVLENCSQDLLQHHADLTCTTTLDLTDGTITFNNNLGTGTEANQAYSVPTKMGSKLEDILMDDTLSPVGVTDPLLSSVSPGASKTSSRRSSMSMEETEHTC
# [26] = biological target: Melanin-concentrating hormone receptor 1 (Homo sapiens, UniProt Q99705); test: Late-stage fluorescence-based counterscreen for antagonists of the G-protein coupled receptor 7 (GPR7): cell-based dose response assay to identify antagonists of the melanin-concentrating hormone receptor 1 (MCHR1). [Related pubchem assays (depositor defined):AID1861, AID1880, AID1952, AID2148, AID2251, AID2257, AID485339]; format: functional;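 note: stimulated with 30 nM MCH peptide agonist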
# Sequence of Melanin-concentrating hormone receptor 1 (Q99705 whole entry): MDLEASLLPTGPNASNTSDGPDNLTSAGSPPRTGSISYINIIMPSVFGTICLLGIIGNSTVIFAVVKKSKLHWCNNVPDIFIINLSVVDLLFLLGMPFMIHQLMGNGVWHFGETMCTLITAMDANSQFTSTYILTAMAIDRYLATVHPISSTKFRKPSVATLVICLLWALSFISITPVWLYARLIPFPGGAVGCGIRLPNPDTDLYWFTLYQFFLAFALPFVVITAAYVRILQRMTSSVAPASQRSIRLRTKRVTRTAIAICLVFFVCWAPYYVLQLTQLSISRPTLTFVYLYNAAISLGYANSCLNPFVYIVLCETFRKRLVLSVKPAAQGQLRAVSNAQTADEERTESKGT
# HEK293 [27] = test: cells; format: functional, cell-based; settings: Homo sapiens
# HEK293 [28] = test: cells; format: functional, cell-based; settings: Homo sapiens; remark: listed apart in the source
# HEK293 [29] = test: NOD2 signaling inhibitors in MDP-stimulated cells, cell-based, uHTS, luminescence (AID 2001); format: functional; settings: Homo sapiens
# HEK293 [30] = test: NOD1 signaling inhibitors, primary screen, cell-based, luminescence, uHTS (AID 1578); format: functional; settings: Homo sapiens
# HEK293 [31] = test: cells; format: functional, cell-based; settings: Homo sapiens; remark: listed apart in the source
# [32] = biological target: Nucleotide-binding oligomerization domain-containing protein 2 (Homo sapiens, UniProt Q9HC29); test: NOD2 signaling inhibitors, cell-based, luminescence, uHTS, HEK293 (AID 1566); format: functional
# Sequence of Nucleotide-binding oligomerization domain-containing protein 2 (Q9HC29 whole entry, the tested form may be a part): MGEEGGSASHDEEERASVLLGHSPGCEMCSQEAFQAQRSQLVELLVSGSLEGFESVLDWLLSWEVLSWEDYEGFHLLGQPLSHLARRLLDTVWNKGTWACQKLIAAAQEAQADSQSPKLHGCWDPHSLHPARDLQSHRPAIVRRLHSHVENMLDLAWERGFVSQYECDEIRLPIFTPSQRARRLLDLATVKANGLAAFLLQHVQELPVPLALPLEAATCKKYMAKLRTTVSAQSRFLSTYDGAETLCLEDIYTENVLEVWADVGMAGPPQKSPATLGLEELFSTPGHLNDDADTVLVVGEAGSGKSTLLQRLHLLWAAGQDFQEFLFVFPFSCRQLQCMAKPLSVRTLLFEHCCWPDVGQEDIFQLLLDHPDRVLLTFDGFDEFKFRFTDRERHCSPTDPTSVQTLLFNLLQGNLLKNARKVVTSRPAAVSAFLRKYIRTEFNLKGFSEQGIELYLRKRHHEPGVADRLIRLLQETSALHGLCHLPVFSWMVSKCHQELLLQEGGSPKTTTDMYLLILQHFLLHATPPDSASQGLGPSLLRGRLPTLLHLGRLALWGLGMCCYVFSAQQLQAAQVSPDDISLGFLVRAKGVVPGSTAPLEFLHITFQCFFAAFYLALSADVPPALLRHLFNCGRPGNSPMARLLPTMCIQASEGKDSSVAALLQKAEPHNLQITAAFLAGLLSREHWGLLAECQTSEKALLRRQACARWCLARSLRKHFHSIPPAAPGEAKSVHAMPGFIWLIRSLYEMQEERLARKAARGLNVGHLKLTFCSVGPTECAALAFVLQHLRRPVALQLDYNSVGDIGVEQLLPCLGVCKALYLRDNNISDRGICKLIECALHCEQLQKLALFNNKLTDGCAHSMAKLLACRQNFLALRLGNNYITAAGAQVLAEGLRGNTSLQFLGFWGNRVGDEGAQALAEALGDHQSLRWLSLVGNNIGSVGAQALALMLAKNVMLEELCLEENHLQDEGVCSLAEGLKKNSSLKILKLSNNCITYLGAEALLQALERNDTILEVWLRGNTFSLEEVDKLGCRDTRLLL
smiles,measurement,setting,value
COc1ccccc1CC(=O)NCc1csc(-c2cccs2)n1,IC50,Coagulation factor XII,> 50 µM (inactive)
COc1cccc(/C=C/C(=O)c2cccc([N+](=O)[O-])c2)c1OC,EC50,[1],9.39 µM (active)
CC(C)c1ccc(Nc2nnc(SC3CCOC3=O)s2)cc1 (configuration not stated),EC50,[1],7.37 µM (active)
CN(/N=C/c1ccc2c(c1)OCO2)c1nc(N2CCOCC2)nc(N2CCOCC2)n1,IC50,Coagulation factor XII,> 50 µM (inactive)
Cn1c(/C=C/c2ccc([N+](=O)[O-])o2)nc2ccccc2c1=O,IC50,cells,0.78 µM (active)
same,EC50,[2],< 0.059 µM (active)
same,CC50,[3],1.44 µM (active)
same,EC50,BJ [4],2.75 µM (inconclusive)
same,EC50,[5],> 120 µM (not active)
same,EC50,[6],> 260 µM (inconclusive)
same,EC50,BJ [7],3.51 µM (inconclusive)
same,EC50,BJ [8],4.06 µM (active)
same,AC50,[9],10.6 µM (active)
same,EC50,[10],> 120 µM (not active)
same,AC50,INS1,2.55 µM (active)
same,AC50,Cytochrome P450 3A4,25.1 µM (inconclusive)
same,AC50,[11],2.37 µM (active)
same,EC50,[12],> 120 µM (not active)
same,AC50,Cytochrome P450 2D6,17.8 µM (inconclusive)
same,AC50,[13],5 µM (active)
same,AC50,[14],7 µM (active)
same,EC50,BJ [15],1.35 µM (active)
same,CC50,[16],2.67 µM (active)
same,EC50,[17],3.02 µM (active)
same,EC50,[18],< 0.059 µM (active)
same,CC50,[19],6.22 µM (active)
CCOC(=O)C[n+]1c(C)sc2ccc(OC)cc21,IC50,Large T antigen,22.1 µM (active)
same,AC50,Cytochrome P450 2D6,12.6 µM (inconclusive)
same,IC50,Coagulation factor XII,> 50 µM (inactive)
Nc1nnnn1/N=C/C(Br)=C/c1ccccc1,EC50,H4,> 120 µM (not active)
same,IC50,cells,5.76 µM (active)
same,EC50,[20],17.4 µM (active)
same,CC50,[3],5.96 µM (active)
same,EC50,BJ [4],> 38 µM (inconclusive)
same,AC50,Paired box protein Pax-8,1.36 µM (active)
same,EC50,[21],> 120 µM (not active)
same,EC50,[22],2.37 µM (active)
same,EC50,BJ [7],> 150 µM (inconclusive)
same,EC50,BJ [8],5.12 µM (inconclusive)
same,CC50,[23],6.31 µM (active)
same,EC50,[24],2.94 µM (active)
same,CC50,[16],10 µM (active)
same,EC50,[17],3.95 µM (active)
same,AC50,[25],5.44 µM (active)
same,CC50,[19],5.79 µM (active)
CCOc1ccc(Oc2c(Br)cnn(-c3ccc(C(C)C)cc3)c2=O)cc1,IC50,[26],3.1 µM (active)
O=C(CN(C(=O)c1ccc(Cl)cc1)N1C(=O)C2CCCCC2C1=O)c1ccc(Cl)cc1 (configuration not stated),EC50,[1],18 µM (active)
O=C(N/N=C/c1ccc([N+](=O)[O-])o1)c1cc2ccccc2o1,IC50,cells,1.85 µM (active)
same,IC50,HEK293 [27],16.1 µM (active)
same,CC50,[3],22 µM (active)
same,EC50,BJ [4],14.1 µM (inconclusive)
same,EC50,[5],> 120 µM (not active)
same,IC50,HEK293 [28],> 20 µM (inactive)
same,IC50,HEK293 [29],17.8 µM (inactive)
same,EC50,BJ [7],10.7 µM (active)
same,EC50,BJ [8],21.2 µM (active)
same,EC50,[10],> 120 µM (not active)
same,AC50,INS1,2.63 µM (active)
same,EC50,HEK293 [30],7.3 µM (active)
same,EC50,[12],> 60 µM (not active)
same,EC50,BJ [15],4.63 µM (inconclusive)
same,IC50,HEK293 [31],> 20 µM (inactive)
same,EC50,[32],10.5 µM (active)
same,CC50,[16],17 µM (active)
same,EC50,[17],23.8 µM (active)
same,AC50,[25],5.99 µM (active)
same,CC50,[19],> 20 µM (active)
